From BindingDB's records for patent US9707233 (Incyte Holdings Corporation, 2017)

Biological target: T1, Phosphatidylinositol 4,5-bisphosphate 3-kinase catalytic subunit delta isoform (Homo sapiens, UniProt O00329)
T1 sequence (O00329 whole entry): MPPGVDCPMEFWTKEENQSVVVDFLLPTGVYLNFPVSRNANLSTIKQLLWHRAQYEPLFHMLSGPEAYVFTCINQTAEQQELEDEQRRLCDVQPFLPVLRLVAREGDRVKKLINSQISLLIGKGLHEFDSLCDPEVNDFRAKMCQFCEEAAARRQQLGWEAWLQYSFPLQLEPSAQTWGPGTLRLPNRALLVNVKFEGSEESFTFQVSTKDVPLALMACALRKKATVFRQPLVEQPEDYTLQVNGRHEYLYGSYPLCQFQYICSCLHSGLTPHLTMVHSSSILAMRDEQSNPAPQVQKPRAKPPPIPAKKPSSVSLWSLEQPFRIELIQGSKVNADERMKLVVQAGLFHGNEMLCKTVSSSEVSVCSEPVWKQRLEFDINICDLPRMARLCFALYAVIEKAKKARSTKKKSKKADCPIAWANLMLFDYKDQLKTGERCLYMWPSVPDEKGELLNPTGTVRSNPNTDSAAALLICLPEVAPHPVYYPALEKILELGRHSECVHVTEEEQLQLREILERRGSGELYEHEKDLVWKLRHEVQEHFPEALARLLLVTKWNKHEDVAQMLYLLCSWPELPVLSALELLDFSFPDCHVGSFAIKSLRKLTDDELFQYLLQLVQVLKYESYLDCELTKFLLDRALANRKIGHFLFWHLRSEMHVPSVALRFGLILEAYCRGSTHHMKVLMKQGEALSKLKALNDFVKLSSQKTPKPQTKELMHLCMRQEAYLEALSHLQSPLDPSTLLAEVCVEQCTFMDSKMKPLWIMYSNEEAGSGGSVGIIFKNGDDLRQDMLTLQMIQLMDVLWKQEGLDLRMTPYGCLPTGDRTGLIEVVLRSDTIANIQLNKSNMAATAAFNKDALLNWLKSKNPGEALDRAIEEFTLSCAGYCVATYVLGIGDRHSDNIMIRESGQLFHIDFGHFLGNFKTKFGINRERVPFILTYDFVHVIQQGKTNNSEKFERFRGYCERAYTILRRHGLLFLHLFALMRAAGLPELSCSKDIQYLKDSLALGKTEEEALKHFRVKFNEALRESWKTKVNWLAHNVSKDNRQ
Assay: A2 PI3Kdelta Scintillation Proximity Assay
Details: pH 6.7; 25 °C
Protocol: PI3K isoforms α, β, δ and γ are purchased from Millipore (Bedford, Mass.). […] Inhibitors are first diluted serially in DMSO and added to the plate wells before the addition of other reaction components. The final concentration of DMSO in the assay is 0.5%. The PI3K assays are carried out at room temperature in 20 mM MOPS, pH 6.7, 10 mM MgCl2, 5 mM DTT and CHAPS 0.03%. The reaction mixture is prepared containing 50 μM PIP2, kinase and varying concentration of inhibitors. […] Reactions are incubated for 180 minutes and terminated by the addition of 100 μL of 1 M potassium phosphate pH 8.0, 30 mM EDTA quench buffer. A 100 μL aliquot of the reaction solution are then transferred to 96-well Millipore MultiScreen IP 0.45 μm PVDF filter plate (The filter plate is prewetted with 200 μL 100% ethanol, distilled water, and 1 M potassium phosphate pH 8.0, respectively). […] After drying by aspiration and blotting, the plate is air dried in an incubator at 37° C. overnight. Packard TopCount adapter (Millipore) is then attached to the plate followed with addition of 120 μL Microscint 20 scintillation cocktail (Perkin Elmer) in each well. After the plate sealing, the radioactivity of the product is determined by scintillation counting on Topcount (Perkin-Elmer). […]

SMILES	IC50
CCOc1c(C(C)n2nc(C)c3c(N)ncnc32)cc(Cl)c(C#N)c1C1CN(C(C)(C)C(=O)N(C)C)C1 (single isomer, unassigned) [US9707233, 241]	< 10 nM
COc1c(C(C)n2nc(C)c3c(N)ncnc32)cc(Cl)c(C)c1C1CN(CC(F)F)C1 (single isomer, unassigned) [US9707233, 112]	< 10 nM
